Values quoted from earlier work as cited in US20260345512A1, “TRANSDERMAL DELIVERY OF DEXTROMETHORPHAN” (SHINKEI THERAPEUTICS, INC., priority 2022, published 2026).

Columns and labels:
[1] = dextromethorphan alone
[2] = without enhancer

SMILES | adverse reactions reported with use of the individual component [1] | transdermal delivery rate relative to beta estradiol [2]
COc1ccc2c(c1)[C@]13CCCC[C@@H]1[C@H](C2)N(C)CC3 [dextromethorphan] | drowsiness, dizziness, nervousness or restlessness, nausea, vomiting, and stomach pain | –
C[C@]12CC[C@H]3[C@@H](CCC4=CC(=O)CC[C@@]43C)[C@@H]1CC[C@@H]2O [testosterone] | – | three orders of magnitude higher
